This note sets out measurements from patent US20230085307A1, “PYRIDAZINONE COMPOUND AND HERBICIDE” (NISSAN CHEMICAL CORPORATION, priority 2019, published 2023).

Test [1] concerns oval-leafed pondweed. The experiment in a line: Test Example 1: herbicidal activity, application before weed generation under submerged conditions (Table 16, symbol C). The class given is in vivo, oval-leafed pondweed (Monochoria vaginalis). The note with it: 320 g/ha applied herbicide. In short, it runs like this: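 Emulsion formulation, water-diluted to set dose, was put onto the flooded surface (4 cm depth, alluvial soil) the same day weeds were sown and 2.5-leaf rice transplanted. After 3 weeks at 25-30 °C under glass, each species was rated 0 (≤5% kill) to 5 (≥90% kill).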

In test [2] the test system is late watergrass. The experiment in a line: Test Example 2: herbicidal activity, application during weed generation under submerged conditions (Table 17, symbol A). The class given is in vivo, late watergrass (Echinochloa oryzicola). As to conditions: AAH 320 g/ha; application during weed generation, submerged conditions. In short, it runs like this:
(§1)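 Steps: fill Wagner pots with alluvial soil; add water to give 4 cm depth; sow the species mixed; grow under glass at 25–30° C.; at 1–2 leaves apply water-diluted emulsion formulation to the water surface at a fixed herbicide amount; score after 3 weeks.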

Test [3] has as its system oval-leafed pondweed. The experiment in a line: Test Example 2: herbicidal activity, application during weed generation under submerged conditions (Table 17, symbol C). The class given is in vivo, oval-leafed pondweed (Monochoria vaginalis). The note with it: AAH 320 g/ha; application during weed generation, submerged conditions. The method, boiled down:
as §1

Test [4] deals with rice flat sedge. Description: Test Example 3: herbicidal effect by foliage application, Wagner pot (Table 18, symbol E). Format: in vivo, rice flat sedge (Cyperus iria). The note with it: 320 g/ha. The method, boiled down:
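Plants were sown in alluvial soil held under 0.1–0.5 cm standing water and grown 14 days in a greenhouse at 25–30 °C. An emulsifiable formulation, water-diluted to the set dose, was then sprayed onto the foliage, and effects were scored three weeks later using previously defined criteria.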

Test [5] has as its system green foxtail. Description: Test Example 4: herbicidal effect by soil treatment (Table 19, symbol G). Format: in vivo, green foxtail (Setaria viridis). The note with it: amount of applied herbicide 320 g/ha. The method, boiled down: (§2)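 Pre-emergence style soil spray: seeds under ~1.5 cm sterilized diluvial soil received a uniform coat of emulsion diluted to the predetermined herbicide amount. Greenhouse 25–30° C; readout at week three on previously defined criteria.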

Test [6] has as its system wild oat. Description: Test Example 4: herbicidal effect by soil treatment (Table 19, symbol I). As to conditions: amount of applied herbicide 320 g/ha. Format: in vivo, wild oat (Avena fatua). The method, boiled down:
as §2

The subject of test [7] is blackgrass. Description: Test Example 4: herbicidal effect by soil treatment (Table 19, symbol J). The class given is in vivo, blackgrass (Alopecurus myosuroides). As to conditions: amount of applied herbicide 320 g/ha. In short, it runs like this: as §2
The subject of test [8] is Italian ryegrass. Description: Test Example 4: herbicidal effect by soil treatment (Table 19, symbol K). Format: in vivo, Italian ryegrass (Lolium multiflorum). As to conditions: amount of applied herbicide 320 g/ha. In short, it runs like this: as §2
Test [9] concerns redroot pigweed. Description: Test Example 4: herbicidal effect by soil treatment (Table 19, symbol N). The class given is in vivo, redroot pigweed (Amaranthus retroflexus). As to conditions: amount of applied herbicide 320 g/ha. The method, boiled down: as §2
Test [10] has as its system chickweed. Description: Test Example 4: herbicidal effect by soil treatment (Table 19, symbol P). The class given is in vivo, common chickweed (Stellaria media). The note with it: amount of applied herbicide 320 g/ha. In short, it runs like this:
as §2

Test [11] deals with persian speedwell. Description: Test Example 4: herbicidal effect by soil treatment (Table 19, symbol R). Format: in vivo, Persian speedwell (Veronica persica). The note with it: amount of applied herbicide 320 g/ha. The method, boiled down:
as §2

For test [12], the system named is green foxtail. Description: Test Example 5: herbicidal effect by foliage application, plastic box (Table 20, symbol G). The class given is in vivo, green foxtail (Setaria viridis). The note with it: foliage application, 320 g/ha, three weeks after application. In short, it runs like this: (§3)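 Plants were sown into sterilized diluvial soil under about 1.5 cm cover and kept in a greenhouse at 25° C. to 30° C. Fourteen days on, foliage received an even spray of the diluted emulsion. Herbicidal or crop effect was judged three weeks afterwards.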

Test [13] has as its system barnyard grass. Description: Test Example 5: herbicidal effect by foliage application, plastic box (Table 20, symbol H). The class given is in vivo, barnyard grass (Echinochloa crus-galli). The note with it: foliage application, 320 g/ha, three weeks after application. The method, boiled down: as §3
Test [14] relates to blackgrass. Description: Test Example 5: herbicidal effect by foliage application, plastic box (Table 20, symbol J). Format: in vivo, blackgrass (Alopecurus myosuroides). As to conditions: foliage application, 320 g/ha, three weeks after application. In short, it runs like this:
as §3

The test system of test [15] is redroot pigweed. Description: Test Example 5: herbicidal effect by foliage application, plastic box (Table 20, symbol N). Format: in vivo, redroot pigweed (Amaranthus retroflexus). The note with it: foliage application, 320 g/ha, three weeks after application. In short, it runs like this: as §3
Test [16] deals with chickweed. Description: Test Example 5: herbicidal effect by foliage application, plastic box (Table 20, symbol P). Format: in vivo, common chickweed (Stellaria media). As to conditions: foliage application, 320 g/ha, three weeks after application. The method, boiled down: as §3

On to `Cc1nn(C)c(=O)c(-c2c(-c3ccc(C#N)cc3)sc3ccccc23)c1O` [Compound No. 1-045, 5-hydroxy-2,6-dimethyl-4-(2-(4-cyanophenyl)benzo[b]thiophen-3-yl)pyridazin-3(2H)-one], for which the “Herbicidal effect on C: oval-leafed pondweed (grade 0-5)” value in [1] is 4 (Herbicidal rate of 70% or more and less than 90%). Further, the “herbicidal effect rating, A: late watergrass” value in [2] was 1 (Herbicidal rate of 5% or more and less than 20%). The “herbicidal effect rating, C: oval-leafed pondweed” value in test [3] is 4 (Herbicidal rate of 70% or more and less than 90%). For the same compound, the “herbicidal effect on E (rice flat sedge), rating 0-5” value in [4] is reported as 5 (Herbicidal rate of 90% or more (almost completely withered)). The “herbicidal effect rating, G: green foxtail” value in test [5] was 4 (Herbicidal rate of 70% or more and less than 90%). Further, in [6], the “herbicidal effect rating, I: wild oat” value is 0 (Herbicidal rate of 5% or less (almost no effect)). Besides, in test [7], the “herbicidal effect rating, J: blackgrass” value is 0 (Herbicidal rate of 5% or less (almost no effect)). Also, the “herbicidal effect rating, K: Italian ryegrass” value in [8] is 5 (Herbicidal rate of 90% or more (almost completely withered)). For the same compound, the “herbicidal effect rating, N: redroot pigweed” value in test [9] is 3 (Herbicidal rate of 40% or more and less than 70%). Moreover, in test [10], the “herbicidal effect rating, P: chickweed” value is 4 (Herbicidal rate of 70% or more and less than 90%). Further, in [11], the “herbicidal effect rating, R: persian speedwell” value was 5 (Herbicidal rate of 90% or more (almost completely withered)). The “herbicidal effect grade, G: green foxtail” value in test [12] was 3 (Herbicidal rate of 40% or more and less than 70%). For the same compound, the “herbicidal effect grade, H: barnyard grass” value in [13] was 4 (Herbicidal rate of 70% or more and less than 90%). In [14], the “herbicidal effect grade, J: blackgrass” value is reported as 0 (Herbicidal rate of 5% or less (almost no effect)). Further, in test [15], the “herbicidal effect grade, N: redroot pigweed” value is recorded as 5 (Herbicidal rate of 90% or more (almost completely withered)). Also, the “herbicidal effect grade, P: chickweed” value in [16] is reported as 5 (Herbicidal rate of 90% or more (almost completely withered)).
